Source: ChEMBL document CHEMBL2321831, “Design, synthesis, and biological evaluations of novel 7-[7-amino-7-methyl-5-azaspiro[2.4]heptan-5-yl]-8-methoxyquinolines with potent antibacterial activity against respiratory pathogens” (J Med Chem, 2013)
In brackets after ≈: the same amount, converted by molar mass. Activity calls are given as the source filed them. The calls are words filed in the database; no cut-off is given here.

Legend:
[1] = Plasma protein binding in human at 5 ug/mL by ultrafiltration method; type: ADME, cell-free; settings: read-out: PPB (converted)
Chlamydia pneumoniae = assay: Antibacterial activity against Chlamydophila pneumoniae AR39 after 18 hrs by microbroth dilution method; type: functional; settings: AR39, 18 h
[2] = AUC (0 to 8 hrs) in Crj:CD rat serum at 5 mg/kg, po; type: ADME, organism-based; design: time < 8 hr, dose 5 mg/kg, route oral
[3] = Cmax in cynomolgus monkey serum at 5 mg/kg, po; type: ADME, organism-based, Macaca fascicularis; design: dose 5 mg/kg, route oral
[4] = Drug recovery in Crj:CD rat urine at 5 mg/kg, po after 24 hrs; type: ADME, organism-based; design: dose 5 mg/kg, route oral; settings: read-out: Drug recovery
Streptococcus pneumoniae [5] = assay: Antibacterial activity against quinolone-sensitive Streptococcus pneumoniae infected in po dosed CBA/JNCrj mouse pneumonia model administered bid measured day after final administration of drug; type: functional, organism-based
[6] = AUC (0 to 8 hrs) in Crj:CD rat lung at 5 mg/kg, po; type: ADME, organism-based; design: time < 8 hr, dose 5 mg/kg, route oral
[7] = Ratio of AUC (0 to 8 hrs) in Crj:CD rat liver to AUC (0 to 8 hrs) in Crj:CD rat serum at 5 mg/kg, po; type: ADME, organism-based; design: dose 5 mg/kg, route oral; settings: read-out: Ratio AUC
Staphylococcus aureus [8] = assay: Antibacterial activity against levofloxacin-resistant and methicillin-resistant Staphylococcus aureus 870307 after 18 hrs by microbroth dilution method; type: functional; settings: Staphylococcus aureus, 870307, 18 h
Streptococcus pneumoniae [9] = assay: Antibacterial activity against levofloxacin-intermediate and levofloxacin-resistant Streptococcus pneumoniae after 18 hrs by microbroth dilution method; type: functional
Enterococcus faecalis [10] = assay: Antibacterial activity against Enterococcus faecalis ATCC 19433 after 18 hrs by microbroth dilution method; type: functional; settings: ATCC 19433, 18 h
Klebsiella pneumoniae = assay: Antibacterial activity against Klebsiella pneumoniae TYPE1 after 18 hrs by microbroth dilution method; type: functional; settings: TYPE1, 18 h
Cytochrome P450 3A4 = Cytochrome P450 3A4 (Homo sapiens, UniProt P08684); assay: Inhibition of CYP3A4 in human liver microsomes assessed as 1'-hydroxylation of midazolam; type: ADME, Microsome
Sequence of Cytochrome P450 3A4 (P08684 whole entry): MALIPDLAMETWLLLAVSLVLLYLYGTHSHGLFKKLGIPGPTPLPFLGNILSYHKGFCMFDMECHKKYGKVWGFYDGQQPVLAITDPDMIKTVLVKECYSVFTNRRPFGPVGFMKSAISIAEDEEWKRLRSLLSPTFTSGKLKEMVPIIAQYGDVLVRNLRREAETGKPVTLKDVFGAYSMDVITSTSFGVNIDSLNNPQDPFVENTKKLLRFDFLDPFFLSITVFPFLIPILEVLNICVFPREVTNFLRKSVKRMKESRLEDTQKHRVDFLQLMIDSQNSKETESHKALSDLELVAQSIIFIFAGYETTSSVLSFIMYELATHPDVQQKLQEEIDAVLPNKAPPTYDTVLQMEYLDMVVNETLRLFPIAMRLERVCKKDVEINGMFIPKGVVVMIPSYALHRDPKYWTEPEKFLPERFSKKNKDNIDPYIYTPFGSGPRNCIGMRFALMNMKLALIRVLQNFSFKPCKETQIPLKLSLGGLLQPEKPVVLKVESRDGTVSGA

Streptococcus pyogenes = assay: Antibacterial activity against Streptococcus pyogenes G-36 after 18 hrs by microbroth dilution method; type: functional; settings: G-36, 18 h
Bacillus subtilis = assay: Ratio of MIC for levofloxacin to compound MIC for Bacillus subtilis IID 685; type: functional
Enterococcus faecalis [11] = assay: Ratio of MIC for levofloxacin to compound MIC for Enterococcus faecalis ATCC 19433; type: functional
[12] = tested on: Staphylococcus epidermidis; assay: Ratio of MIC for levofloxacin to compound MIC for Staphylococcus epidermidis 56500; type: functional
[13] = AUC (0 to 8 hrs) in Crj:CD rat liver at 5 mg/kg, po; type: ADME, organism-based; design: time < 8 hr, dose 5 mg/kg, route oral
Staphylococcus aureus [14] = assay: Antibacterial activity against Staphylococcus aureus FDA 209-P after 18 hrs by microbroth dilution method; type: functional
[15] = tested on: Mycoplasmoides pneumoniae; assay: Antibacterial activity against Mycoplasma pneumoniae ATCC 29085 after 18 hrs by microbroth dilution method; type: functional; settings: ATCC 29085, 18 h
Escherichia coli = assay: Antibacterial activity against Escherichia coli NIHJ after 18 hrs by microbroth dilution method; type: functional
Streptococcus pneumoniae [16] = assay: Antibacterial activity against quinolone-resistant Streptococcus pneumoniae infected in sc dosed CBA/JNCrj mouse pneumonia model administered bid measured day after final administration of drug; type: functional, organism-based
[17] = AUC (0 to 8 hrs) in Crj:CD rat kidney at 5 mg/kg, po; type: ADME, organism-based; design: time < 8 hr, dose 5 mg/kg, route oral
Mus musculus [18] = assay: Toxicity in SLC:ddY mouse assessed as induction of micronucleus formation at 150 mg/kg, iv after 24 to 48 hrs by fluorescence microscopic analysis; type: organism-based; design: dose 150 mg/kg, route intravenous; settings: in vivo
Streptococcus pneumoniae [19] = assay: Antibacterial activity against penicillin-susceptible Streptococcus pneumoniae J24 after 18 hrs by microbroth dilution method; type: functional; settings: J24, 18 h
hERG (KCNH2) = hERG (KCNH2) (Homo sapiens, UniProt Q12809); assay: Inhibition of human ERG expressed in CHOK1 cells at 100 uM; type: cell-based; settings: CHO-K1 cells expressing hERG
Sequence of hERG (KCNH2) (Q12809 whole entry): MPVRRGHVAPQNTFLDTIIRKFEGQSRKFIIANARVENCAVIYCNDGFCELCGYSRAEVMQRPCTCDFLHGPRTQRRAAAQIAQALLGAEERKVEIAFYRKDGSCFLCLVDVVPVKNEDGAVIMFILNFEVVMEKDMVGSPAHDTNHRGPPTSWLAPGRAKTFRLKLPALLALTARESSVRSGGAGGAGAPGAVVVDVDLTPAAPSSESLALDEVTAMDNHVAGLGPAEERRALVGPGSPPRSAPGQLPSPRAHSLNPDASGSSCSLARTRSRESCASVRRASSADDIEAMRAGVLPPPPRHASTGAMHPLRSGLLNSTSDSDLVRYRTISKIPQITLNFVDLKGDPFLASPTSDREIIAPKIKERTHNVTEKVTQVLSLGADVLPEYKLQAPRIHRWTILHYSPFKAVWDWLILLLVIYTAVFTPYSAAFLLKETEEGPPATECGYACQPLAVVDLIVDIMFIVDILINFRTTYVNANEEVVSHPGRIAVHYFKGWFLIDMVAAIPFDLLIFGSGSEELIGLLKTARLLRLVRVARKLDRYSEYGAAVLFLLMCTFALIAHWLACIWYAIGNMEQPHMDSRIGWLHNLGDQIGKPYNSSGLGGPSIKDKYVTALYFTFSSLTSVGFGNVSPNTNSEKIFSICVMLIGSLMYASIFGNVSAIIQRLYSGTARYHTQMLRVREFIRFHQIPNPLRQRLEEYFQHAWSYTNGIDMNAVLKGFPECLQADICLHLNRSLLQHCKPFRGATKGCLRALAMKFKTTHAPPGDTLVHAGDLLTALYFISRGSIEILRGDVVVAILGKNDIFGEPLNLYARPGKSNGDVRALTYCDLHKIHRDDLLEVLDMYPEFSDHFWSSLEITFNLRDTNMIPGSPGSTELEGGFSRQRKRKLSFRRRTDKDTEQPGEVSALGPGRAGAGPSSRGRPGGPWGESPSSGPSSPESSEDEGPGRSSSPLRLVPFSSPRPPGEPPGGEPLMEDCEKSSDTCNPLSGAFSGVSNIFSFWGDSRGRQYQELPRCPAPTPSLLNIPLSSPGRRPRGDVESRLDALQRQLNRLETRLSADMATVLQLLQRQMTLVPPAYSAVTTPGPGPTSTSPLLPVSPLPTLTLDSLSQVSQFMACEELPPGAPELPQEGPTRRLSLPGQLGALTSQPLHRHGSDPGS

[20] = Drug recovery in cynomolgus monkey urine at 5 mg/kg, po after 24 hrs; type: ADME, organism-based, Macaca fascicularis; design: dose 5 mg/kg, route oral; settings: read-out: Drug recovery
Mus musculus [21] = assay: Toxicity in SLC:ddY mouse assessed as induction of micronucleus formation at 50 mg/kg, iv after 24 to 48 hrs by fluorescence microscopic analysis; type: organism-based; design: dose 50 mg/kg, route intravenous; settings: in vivo
Mus musculus [22] = assay: Toxicity in SLC:ddY mouse assessed as mortality at 150 mg/kg, iv after 7 days; type: organism-based; design: dose 150 mg/kg, route intravenous; settings: in vivo, 168 h

`COc1c(N2CC3(CC3)[C@](C)(N)C2)c(F)cc2c(=O)c(C(=O)O)cn([C@@H]3C[C@@H]3F)c12` gave a fraction unbound at 5 ug/mL [1] of 0.653, an MIC (Chlamydia pneumoniae) of 0.125 µg/mL (≈ 0.298 µM) and an AUC(0-t) at 8 h [2] of 3080 ng·h/mL. The Cmax [3] was 2200 ng/mL, the dose excreted at 24 h [4] was 32% and the Activity (Streptococcus pneumoniae [5]) was “Active”. It also gave an AUC(0-t) at 8 h [6] of 13700 ng·h/mL, a Kp [7] of 10.4 and an MIC (Staphylococcus aureus [8]) of 0.39 µg/mL (≈ 0.93 µM). For the same compound, the MIC50 (Streptococcus pneumoniae [9]) was 1 µg/mL (≈ 2.38 µM), the MIC80 (Streptococcus pneumoniae [9]) was 1 µg/mL (≈ 2.38 µM) and the MIC90 (Streptococcus pneumoniae [9]) was 1 µg/mL (≈ 2.38 µM). For the same compound, the MIC (Enterococcus faecalis [10]) was 0.2 µg/mL (≈ 0.477 µM), the MIC (Klebsiella pneumoniae) was 0.05 µg/mL (≈ 0.119 µM) and the “inhibition (INH)” value (Cytochrome P450 3A4) was “Not Active”. It also gave an MIC (Streptococcus pyogenes) of 0.2 µg/mL (≈ 0.477 µM), a Ratio (Bacillus subtilis) of over 4 and a Ratio (Enterococcus faecalis [11]) of over 4. For the same compound, the Ratio [12] was over 4, the AUC(0-t) at 8 h [13] was 32100 ng·h/mL and the MIC (Staphylococcus aureus [14]) was 0.025 µg/mL (≈ 0.0596 µM). For the same compound, the MIC [15] was 0.12 µg/mL (≈ 0.286 µM), the MIC (Escherichia coli) was 0.012 µg/mL (≈ 0.0286 µM) and the Activity (Streptococcus pneumoniae [16]) was “Active”. For the same compound, the AUC(0-t) at 8 h [17] was 27800 ng·h/mL, the Activity (Mus musculus [18]) was “Non-toxic” and the MIC (Streptococcus pneumoniae [19]) was 0.05 µg/mL (≈ 0.119 µM). The inhibition at 100 µM (hERG (KCNH2)) was 2.7%, the dose excreted at 24 h [20] was 61.3% and the Activity (Mus musculus [21]) was “Non-toxic”. The Activity (Mus musculus [22]) was “Non-toxic”.
